The values below come from PMC5146284, “Molecular imaging with engineered physiology” (Nature Communications, 2016).

For one data set, the system named is rat brain (thalamus). The data set can be described thus: MRI of haemodynamic response to intracranial CGRP infusion. It is filed as in vivo, rat (Sprague-Dawley). Particulars: inferred from MRI time course during intracranial infusion. From the text: Haemodynamic contrast provided sufficient resolution to monitor convective spread of the imaging agent from the site of infusion (Supplementary Fig. 1b).
Magnetic resonance imaging
Nineteen Sprague-Dawley rats were used for in vivo MRI experiments. […]
Animals were scanned by MRI to measure the changes in haemodynamic contrast following intracranial injections. […] Breathing rate and end-tidal expired isoflurane were continuously monitored. […]
Signals were averaged over six animals in 1.5 mm square regions of interest (ROIs) positioned around the infusion cannulae tips in each animal (cf. Fig. 2d); gray shading denotes standard errors as a function of time. (b) Time courses from multiple approximately concentric ROIs (diagrammed at left) were analyzed to determine whether hemodynamic MRI has sufficient spatial resolution to monitor convection of CGRP from the infusion site. For each ROI, the delay between the start of infusion and the ob-servation of statistically significant signal changes from baseline was measured (color coded bars at right). […]

Data set [1] relates to enterokinase (EK) light chain. As to the kind of experiment: Proteolytic cleavage by enterokinase light chain (SDS-PAGE). It is filed as biochemical. Particulars: 10 µM sensor, 2 h, 37 °C, different EK concentrations. On the procedure: (§1) Proteolytic cleavage reactions
(§2) Supplementary Fig. 4. Proteolytic cleavage of candidate sensors and assessment by bioas-say. (a-e) Cleavage reaction products after incubation of 10 µM sensor with or without enzyme for 2 h at 37 °C. (a) MALDI mass spectrum of sensor (1) after incubation with or without FAP […]
(§3) (b) SDS-PAGE analysis of sensor
(§4) (c) SDS-PAGE analysis of sensor (3) after incubation with different concentrations of EK light […]
(§5) (d) SDS-PAGE analysis of sen- […]
(§6) and liberation of free CGRP. (f-k) Dose-response curves of uncleaved and cleaved sensors in […]
(§7) (f) Dose-response curves for Sensors (2-4) at final assay concentrations up to 10 uM (addition of 10 µL of 100 µM solution to 90 µL medium per well in bioassay) show no receptor activation by uncleaved GFP-linker-CGRP-G sensors even at 10-fold higher concentrations than were used in cleavage assays (g-k). (g-k) Dose-response curves for reaction products from (a-e). Error bars in (f-k) denote SD of measurements performed in triplicate.
(§8) (1 picture or pasted object on this page, not shown here)

Another data set deals with TEV protease. The data set can be described thus: Proteolytic cleavage by TEV protease (SDS-PAGE). As to conditions: 10 µM sensor, 2 h, 37 °C. It is filed as biochemical. On the procedure:
as §1, §2, §3, §4, §5, §6, §7, §8

As to `CC(C)C[C@H](NC(=O)CNC(=O)[C@H](C)NC(=O)[C@H](CC(C)C)NC(=O)[C@H](CCCNC(=N)N)NC(=O)[C@H](Cc1cnc[nH]1)NC(=O)[C@@H](NC(=O)[C@@H](NC(=O)[C@@H]1CSSC[C@H](NC(=O)[C@H](C)N)C(=O)N[C@@H](CC(=O)O)C(=O)N[C@@H]([C@@H](C)O)C(=O)N[C@@H](C)C(=O)N[C@@H]([C@@H](C)O)C(=O)N1)C(C)C)[C@@H](C)O)C(=O)N[C@@H](CC(C)C)C(=O)N[C@@H](CO)C(=O)N[C@@H](CCCNC(=N)N)C(=O)N[C@@H](CO)C(=O)NCC(=O)NCC(=O)N[C@H](C(=O)N[C@H](C(=O)N[C@@H](CCCCN)C(=O)N[C@@H](CC(N)=O)C(=O)N[C@@H](CC(N)=O)C(=O)N[C@@H](Cc1ccccc1)C(=O)N[C@H](C(=O)N1CCC[C@H]1C(=O)N[C@H](C(=O)N[C@@H](CC(N)=O)C(=O)N[C@H](C(=O)NCC(=O)N[C@@H](CO)C(=O)N[C@@H](CCCCN)C(=O)N[C@@H](C)C(=O)N[C@@H](Cc1ccccc1)C(N)=O)C(C)C)[C@@H](C)O)C(C)C)C(C)C)C(C)C` [wtCGRP, calcitonin gene-related peptide], the “removal or degradation in brain tissue” value in the data set on rat brain (thalamus) is “not rapidly removed or degraded in brain tissue”. As for “cfSGFP2-DDDDK-CGRP-G [Sensor (3), recombinant fusion of cysteine-free GFP, a short linker, enterokinase site and non-amidated CGRP]”, the “cleavage by EK light chain” value in data set [1] is given as “increasing cleavage with increasing concentrations”. In the case of “cfSGFP2-ENLYFQG-CGRP-G [Sensor (2), recombinant fusion of cysteine-free GFP, a short linker, TEV protease site and non-amidated CGRP]”, in the data set with TEV protease, the “cleavage by TEV protease” value is listed as “substantial but not complete cleavage”.
